Article PMC3894558, “Chemical signatures and new drug targets for gametocytocidal drug development” (Scientific Reports, 2014)
Like-named read-outs stand apart in the source and are kept apart here.

Test system: P. falciparum 3D7 gametocytes
Experiment: alamarBlue gametocyte viability assay, strain 3D7
Format: cell-based, Plasmodium falciparum
Conditions: Malaria Box; for Max Resp: DMSO set at 0%, 100 nM epoxomicin set at -100%; for Curve Class / IC50: stages III-V 3D7 gametocytes; for IC50: 11 concentrations, 1:3 dilution; call rule not given here

Row | Structure (SMILES) | Max Resp [%] | Curve Class | IC50 (read-out: IC50) [µM] | IC50
1 | COc1ccc(C(=O)C(CCC(CNC(C)(C)C)C(=O)c2ccc(OC)cc2)CNC(C)(C)C)cc1 (stereo not drawn) [MMV007591] | -109 | -1.1 | 2.64 | –
2 | O=C(NC1CCCCC1)C(c1cccs1)N(CCc1ccccc1)C(=O)c1ccco1 (stereo not drawn) [MMV666106] | -29 | 4 | – | Inactive
3 | COc1ccc2nc(N)nc(C)c2c1 [MMV665897] | -66 | -2.2 | 29.6 | –
4 | CCCOCc1cc(CN2CCN(c3cccc(Cl)c3)CC2)c(O)c2ncccc12 [MMV000787] | -98 | -1.1 | 8.33 | –
5 | O=C(Nc1ccc(Cl)c(Cl)c1)Nc1ccc(Cl)c(Cl)c1 [MMV665852] | -88 | -2.1 | 23.5 | –
6 | COc1ccc(-c2nonc2NC(=O)c2cccc(C)c2)cc1OC [MMV665890] | -38 | -3 | – | Inactive
7 | Cc1cc(Nc2ccc(Cl)cc2)n2nc(C(F)(F)F)nc2n1 [MMV011256] | -9 | 4 | – | Inactive
8 | CC(Oc1ccc(NC(=O)c2cccs2)cc1)C(=O)c1ccc(Cl)cc1 (stereo not drawn) [MMV665886] | 44 | 2.2 | 18.7 | –
9 | COc1ccc(C(=O)Nc2nonc2-c2ccc(OC)c(OC)c2)cc1Cl [MMV011567] | 1 | 4 | – | Inactive
10 | CCOC(=O)c1cn(CC)c2cc(N(C)CCc3ccc(OC)c(OC)c3)c(F)cc2c1=O [MMV665977] | 2 | 4 | – | Inactive
11 | CCCCC(O)(c1ccc(Cl)cc1)C(CN1CCOCC1)c1ccc(Cl)cc1.Cl (stereo not drawn) [MMV000619] | -51 | -2.2 | – | Inactive
12 | Cc1sc(NC(=O)c2ccco2)c(C(c2cccnc2)N2CCC(Cc3ccccc3)CC2)c1C (stereo not drawn) [MMV396663] | -85 | -2.1 | 16.6 | –
13 | C[n+]1c2ccccc2nc2ccc(NCCO)cc21 [MMV396693] | -85 | -1.1 | 2.96 | –
14 | Oc1ccc(Br)cc1CN1CCN(Cc2ccc(Cl)cc2)CC1 [MMV665809] | -58 | -1.2 | 3.72 | –
15 | Cc1c(C)n(CC(O)CNC2CCCCC2C)c2ccccc12 (stereo not drawn) [MMV665806] | -89 | -1.1 | 3.32 | –
16 | O=C(Cc1ccccc1)NC(c1ccc(Cl)cc1)c1c(O)ccc2ccccc12 (stereo not drawn) [MMV665972] | -62 | -2.2 | 29.6 | –
17 | COc1cc2cc(C(=O)Nc3ccccc3)c(N)nc2cc1OC [MMV006767] | -53 | -2.2 | 37.2 | –
18 | CCOc1c(Br)cc(C2C(C(=O)OC)=CN(C)C=C2C(=O)OC)cc1OC [MMV006764] | -76 | -2.2 | 14.8 | –
19 | COc1cccc(C(=O)Nc2ccc(-c3nc4ccccc4[nH]3)cc2)c1 [MMV019762] | -1 | 4 | – | Inactive
20 | Cl.N=c1n(CCN2CCCCC2)c2ccccc2n1CC(O)c1cccc(Br)c1 (stereo not drawn) [MMV665902] | -99 | -1.1 | 3.72 | –

Row | Structure (SMILES) | Max Resp [%] | Curve Class | IC50 (read-out: IC50) [µM] | IC50
21 | CC(C)(C)C(=O)Nc1ccc(C(=O)Nc2cccc(-c3nc4ccccc4[nH]3)c2)cc1 [MMV665879] | -23 | 4 | – | Inactive
22 | c1ccc(CNc2nc(Nc3ccccc3)nc3ccccc23)cc1 [MMV006169] | -80 | -2.2 | 11.8 | –
23 | COc1ccc2nc(C)cc(Nc3cccc(O)c3)c2c1.Cl [MMV008212] | -64 | -2.2 | 29.6 | –
24 | COc1ccccc1C(=O)ON=C(N)Cc1cccc2ccccc12 [MMV666686] | -50 | -2.2 | – | Inactive
25 | CCn1c(SCC(=O)Nc2cc(C(F)(F)F)ccc2Cl)nc2ccccc2c1=O [MMV666103] | -11 | 4 | – | Inactive
26 | O=[N+]([O-])c1ccc(C=NNc2nc3ccccc3[nH]2)cc1 [MMV666607] | -57 | -2.2 | 29.6 | –
27 | CC(C)CCNCC(O)Cn1c2ccccc2c2ccccc21.Cl (stereo not drawn) [MMV006787] | -94 | -1.1 | 2.64 | –
28 | CCCCOc1ccc(C(=O)Nc2cc(C)on2)cc1 [MMV007906] | 12 | 4 | – | Inactive
29 | COc1cc(CNCCc2ccc(Cl)cc2)cc(OC)c1O [MMV128432] | -81 | -2.1 | 11.8 | –
30 | Br.CCn1c2c(c(=N)c3c1CCC3)CCCC2 [MMV000340] | -49 | -2.2 | – | Inactive
31 | OC(CNC1CCCCC1)Cn1c2ccc(I)cc2c2cc(I)ccc21 (stereo not drawn) [MMV665882] | -97 | -2.1 | 2.96 | –
32 | Cc1ccc(CSCc2ccc(C(=O)NC3CC3)o2)cc1 [MMV007571] | 6 | 4 | – | Inactive
33 | CCCCCCc1cc2cc(-c3nc4ccccc4[nH]3)c(=Nc3ccccc3C)oc2cc1O [MMV666597] | -27 | -1.4 | 2.09 | –
34 | Cc1cc(N(C)C)nc(Nc2ccc(NC(=O)Nc3ccccc3)cc2)n1 [MMV020243] | -73 | -2.2 | 11.8 | –
35 | COc1cc(OC)cc(N2C(=O)N(Cc3ccc(C(C)(C)C)cc3)c3ccccc3S2(=O)=O)c1 [MMV008173] | 0 | 4 | – | Inactive
36 | CCOc1c(Cl)cc(CNC(C)C(O)c2ccccc2)cc1OC (stereo not drawn) [MMV665857] | -77 | -2.2 | 14.8 | –
37 | CC(C)(C)c1ccc(O)c(CNC2CCCCC2)c1 [MMV665785] | -50 | -1.2 | 0.148 | –
38 | CN1CCN(c2ncnc3c2[nH]c2ccc(Cl)cc23)CC1 [MMV396704] | -57 | -2.2 | 37.2 | –
39 | COc1ccc2sc(N(Cc3cccnc3)C(=O)c3ccc(C#N)cc3)nc2c1 [MMV001239] | -40 | -2.2 | – | Inactive
40 | COc1ccc(CNC2CCN(c3ccc(NC(=O)c4cccc(Cl)c4)cc3)CC2)cc1OC [MMV666067] | -95 | -2.1 | 14.8 | –

Row | Structure (SMILES) | Max Resp [%] | Curve Class | IC50 (read-out: IC50) [µM] | IC50
41 | CCC(O)c1ccc(Br)cc1NC(=O)c1cccc(Cl)c1 (stereo not drawn) [MMV020654] | -37 | -1.2 | 2.09 | –
42 | CCOc1c(Cl)cc(CNCC(O)c2ccccc2)cc1OC (stereo not drawn) [MMV396632] | -76 | -2.2 | 9.35 | –
43 | CCOC(=O)c1cnc2ccc(OC)cc2c1Nc1ccc(N2CCN(C)CC2)cc1 [MMV000704] | -69 | -2.2 | 23.5 | –
44 | CCN(CC)CCNc1ncnc2c1[nH]c1ccc(Br)cc12 [MMV305841] | -95 | -1.1 | 5.26 | –
45 | COc1cc(-c2nc(-c3ccc(Sc4ccccc4)cc3)c(-c3ccccc3)[nH]2)cc(OC)c1O [MMV007273] | -62 | -2.2 | 29.6 | –
46 | COc1ccc(C(=O)NC(c2ccc(Cl)cc2Cl)c2cc(Cl)c3cccnc3c2O)cc1 (stereo not drawn) [MMV666054] | -125 | -2.1 | 16.6 | –
47 | COCCn1c(C)nc2ccccc2c1=O [MMV665904] | -7 | 4 | – | Inactive
48 | COc1ccc(-c2cc(=O)oc3c4c(ccc23)OCN(Cc2ccc(F)cc2)C4)cc1 [MMV000604] | -55 | -2.2 | 7.43 | –
49 | CC(=O)c1ccc(NC(=O)CSc2nc(-c3ccccc3Cl)ns2)cc1 [MMV666124] | -33 | -3 | – | Inactive
50 | Brc1ccc(Nc2nc3ccccc3nc2Nc2ccc(Br)cc2)cc1 [MMV007224] | -96 | -2.1 | 20.9 | –
51 | CC(=O)NCCc1nc2ccccc2n1Cc1ccc(C(C)C)cc1 [MMV007617] | -70 | -2.2 | 23.5 | –
52 | Cc1ccc(Cl)cc1N1CCN(CCCNC(=O)C2CCN(c3nc4ccccc4[nH]3)CC2)CC1 [MMV019746] | -74 | -2.2 | 29.6 | –
53 | Cn1c(C(=O)c2cccc3ccccc23)nc2ccccc21 [MMV665824] | -53 | -2.4 | – | Inactive
54 | O=C(O)C(=O)O.Oc1ccc(Br)cc1CN1CCN(Cc2cccc(F)c2)CC1 [MMV000356] | -72 | -1.2 | 2.64 | –
55 | COc1ccc2c(c1)C1(Nc3ccccc3-c3nc4ccccc4n31)C(=O)N2 (stereo not drawn) [MMV396749] | -61 | -2.2 | 18.7 | –
56 | CC(C)(C)c1ccc(C(=O)Nc2nc3ccccc3s2)cc1 [MMV142383] | -10 | 4 | – | Inactive
57 | O=C(Nc1ccc(CN2CCOCC2)cc1)c1ccc(-c2cc(Cl)ccc2Cl)o1 [MMV020651] | -23 | 4 | – | Inactive
58 | O=C(CCc1ccccc1)c1ccccc1OCC(O)CN1CCCCC1 (stereo not drawn) [MMV009015] | -74 | -2.2 | 7.43 | –
59 | Oc1ccc(-c2nc(-c3ccc4oc5ccc(-c6[nH]c(-c7ccc(O)cc7)nc6-c6ccccc6)cc5c4c3)c(-c3ccccc3)[nH]2)cc1 [MMV000753] | -68 | -2.2 | 18.7 | –
